Experimental data as given in PubChem BioAssay AID2060912 (Molecular Pharmacology Branch, DTP, NCI, 2025).

Tested on: HUVEC/MSC spheroids viability
Assay: Human HUVEC/MSC cell line growth inhibition [KRAS2];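 on viability, T/C: percent of DMSO vehicle control luminescence so 100% = untreated viability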
Conditions: for IC50: curve of first compound; for viability, T/C: stronger effect = lower value; active means viability on the fitted dose curve at most 10% of control; inactive means the rest
In short: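 Endothelial cells (HUVEC) plus mesenchymal stem cells, cultured at 37 °C/5% CO2 and assembled into spheroids without cancer cells, served as a stromal control. Drug pairs and single agents spanned half-log ranges anchored to clinical Cmax.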

[1] = second compound 0.0316 µM, first compound 0.0316 µM
[2] = second compound 0.0316 µM, first compound 0.1 µM
[3] = second compound 0.0316 µM, first compound 0.316 µM
[4] = second compound 0.0316 µM, first compound 1 µM
[5] = second compound 0.0316 µM, first compound 3.16 µM
[6] = second compound 0.0316 µM, first compound 10 µM
[7] = second compound 0.1 µM, first compound 0.0316 µM
[8] = second compound 0.1 µM, first compound 0.1 µM
[9] = second compound 0.1 µM, first compound 0.316 µM
[10] = second compound 0.1 µM, first compound 1 µM
[11] = second compound 0.1 µM, first compound 3.16 µM
[12] = second compound 0.1 µM, first compound 10 µM
[13] = second compound 0.316 µM, first compound 0.0316 µM
[14] = second compound 0.316 µM, first compound 0.1 µM
[15] = second compound 0.316 µM, first compound 0.316 µM
[16] = second compound 0.316 µM, first compound 1 µM
[17] = second compound 0.316 µM, first compound 3.16 µM
[18] = second compound 0.316 µM, first compound 10 µM
[19] = second compound 1 µM, first compound 0.0316 µM
[20] = second compound 1 µM, first compound 0.1 µM
[21] = second compound 1 µM, first compound 0.316 µM
[22] = second compound 1 µM, first compound 1 µM
[23] = second compound 1 µM, first compound 3.16 µM
[24] = second compound 1 µM, first compound 10 µM
[25] = second compound 3.16 µM, first compound 0.0316 µM
[26] = second compound 3.16 µM, first compound 0.1 µM
[27] = second compound 3.16 µM, first compound 0.316 µM
[28] = second compound 3.16 µM, first compound 1 µM
[29] = second compound 3.16 µM, first compound 3.16 µM
[30] = second compound 3.16 µM, first compound 10 µM
[31] = second compound 10 µM, first compound 0.0316 µM
[32] = second compound 10 µM, first compound 0.1 µM
[33] = second compound 10 µM, first compound 0.316 µM
[34] = second compound 10 µM, first compound 1 µM
[35] = second compound 10 µM, first compound 3.16 µM
[36] = second compound 10 µM, first compound 10 µM

CC(C)NCC(C(=O)N1CCN(c2ncnc3c2C(C)CC3O)CC1)c1ccc(Cl)cc1 (stereo unspecified) + CC1OCC2(CCN(c3cnc(Sc4ccnc(N)c4Cl)c(N)n3)CC2)C1N
6.15 µM: IC50 (second compound 0.1 µM)
active: viability, T/C [36] 5.59%
0.228 µM: IC50 (second compound 10 µM)
0.564 µM: IC50 (second compound 3.16 µM)
inactive: viability, T/C [1] 115% | viability, T/C [2] 109% | viability, T/C [3] 93.5% | viability, T/C [4] 66.2% | viability, T/C [5] 56.2% | viability, T/C [6] 47.6% | viability, T/C [7] 123% | viability, T/C [8] 107% | viability, T/C [9] 90.9% | viability, T/C [10] 59.6% | viability, T/C [11] 57.3% | viability, T/C [12] 46.1% | viability, T/C [13] 94.1% | viability, T/C [14] 107% | viability, T/C [15] 98.1% | viability, T/C [16] 68.1% | viability, T/C [17] 49.5% | viability, T/C [18] 38% | viability, T/C [19] 89.6% | viability, T/C [20] 91% | viability, T/C [21] 69.8% | viability, T/C [22] 56.4% | viability, T/C [23] 36.4% | viability, T/C [24] 31.6% | viability, T/C [25] 80.3% | viability, T/C [26] 74.4% | viability, T/C [27] 58.3% | viability, T/C [28] 43.1% | viability, T/C [29] 22.1% | viability, T/C [30] 21% | viability, T/C [31] 65.1% | viability, T/C [32] 62.4% | viability, T/C [33] 43.4% | viability, T/C [34] 30.8% | viability, T/C [35] 14.3%
2.55 µM: IC50 (second compound 0.316 µM)
7.88 µM: IC50 (second compound 0.0316 µM)
1.31 µM: IC50 (second compound 1 µM)

COC(=O)c1ccc2c(C(=Nc3ccc(N(C)C(=O)CN4CCN(C)CC4)cc3)c3ccccc3)c(O)[nH]c2c1 + COc1cc2nc(C)nc(NC(C)c3cc(N)cc(C(F)(F)F)c3)c2cc1OC1CCOC1
inactive: viability, T/C [1] 77.5% | viability, T/C [2] 78.8% | viability, T/C [3] 72.5% | viability, T/C [4] 41% | viability, T/C [5] 29.7% | viability, T/C [7] 78.7% | viability, T/C [8] 89.2% | viability, T/C [9] 67.3% | viability, T/C [10] 40.2% | viability, T/C [11] 24.7% | viability, T/C [13] 72.2% | viability, T/C [14] 83.1% | viability, T/C [15] 52.7% | viability, T/C [16] 39.1% | viability, T/C [17] 22% | viability, T/C [19] 80.1% | viability, T/C [20] 83.4% | viability, T/C [21] 73% | viability, T/C [22] 38.6% | viability, T/C [23] 19.2% | viability, T/C [25] 59.8% | viability, T/C [26] 68.5% | viability, T/C [27] 62.5% | viability, T/C [28] 40.4% | viability, T/C [29] 17.2% | viability, T/C [31] 63.2% | viability, T/C [32] 68% | viability, T/C [33] 62.7% | viability, T/C [34] 39.1%
0.739 µM: IC50 (second compound 1 µM)
active: viability, T/C [6] 0.31% | viability, T/C [12] 0.32% | viability, T/C [18] 0.35% | viability, T/C [24] 0.36% | viability, T/C [30] 0.29% | viability, T/C [35] 0.52% | viability, T/C [36] 0.28%
0.949 µM: IC50 (second compound 0.0316 µM)
0.619 µM: IC50 (second compound 3.16 µM)
0.783 µM: IC50 (second compound 0.1 µM)
0.551 µM: IC50 (second compound 0.316 µM)
0.604 µM: IC50 (second compound 10 µM)

CC1COCCN1c1cc(-c2ccnn2C)c2ccnc(-c3ccn[nH]3)c2n1 (stereo unspecified) + CNCc1ccccc1-c1csc(C(C)Nc2nc(C)nc3cc(OC)c(OC)cc23)c1
1.61 µM: IC50 (second compound 0.0316 µM)
3 µM: IC50 (second compound 0.1 µM)
1.26 µM: IC50 (second compound 1 µM)
active: viability, T/C (second compound 10 µM, first compound 0.00949 µM) 0.34% | viability, T/C (second compound 10 µM, first compound 0.03 µM) 0.43% | viability, T/C (second compound 10 µM, first compound 0.0949 µM) 0.45% | viability, T/C (second compound 10 µM, first compound 0.3 µM) 0.45% | viability, T/C (second compound 10 µM, first compound 0.949 µM) 0.4% | viability, T/C (second compound 10 µM, first compound 3 µM) 0.37%
inactive: viability, T/C (second compound 0.0316 µM, first compound 0.00949 µM) 102% | viability, T/C (second compound 0.0316 µM, first compound 0.03 µM) 96.5% | viability, T/C (second compound 0.0316 µM, first compound 0.0949 µM) 87% | viability, T/C (second compound 0.0316 µM, first compound 0.3 µM) 74.9% | viability, T/C (second compound 0.0316 µM, first compound 0.949 µM) 54.1% | viability, T/C (second compound 0.0316 µM, first compound 3 µM) 43.8% | viability, T/C (second compound 0.1 µM, first compound 0.00949 µM) 88.4% | viability, T/C (second compound 0.1 µM, first compound 0.03 µM) 98.8% | viability, T/C (second compound 0.1 µM, first compound 0.0949 µM) 105% | viability, T/C (second compound 0.1 µM, first compound 0.3 µM) 78.2% | viability, T/C (second compound 0.1 µM, first compound 0.949 µM) 63.1% | viability, T/C (second compound 0.1 µM, first compound 3 µM) 48.3% | viability, T/C (second compound 0.316 µM, first compound 0.00949 µM) 97.5% | viability, T/C (second compound 0.316 µM, first compound 0.03 µM) 95.1% | viability, T/C (second compound 0.316 µM, first compound 0.0949 µM) 74% | viability, T/C (second compound 0.316 µM, first compound 0.3 µM) 66.7% | viability, T/C (second compound 0.316 µM, first compound 0.949 µM) 60.4% | viability, T/C (second compound 0.316 µM, first compound 3 µM) 42.8% | viability, T/C (second compound 1 µM, first compound 0.00949 µM) 85.8% | viability, T/C (second compound 1 µM, first compound 0.03 µM) 78% | viability, T/C (second compound 1 µM, first compound 0.0949 µM) 70.6% | viability, T/C (second compound 1 µM, first compound 0.3 µM) 67.1% | viability, T/C (second compound 1 µM, first compound 0.949 µM) 54.8% | viability, T/C (second compound 1 µM, first compound 3 µM) 37.7% | viability, T/C (second compound 3.16 µM, first compound 0.00949 µM) 94% | viability, T/C (second compound 3.16 µM, first compound 0.03 µM) 101% | viability, T/C (second compound 3.16 µM, first compound 0.0949 µM) 92.6% | viability, T/C (second compound 3.16 µM, first compound 0.3 µM) 81.8% | viability, T/C (second compound 3.16 µM, first compound 0.949 µM) 80.1% | viability, T/C (second compound 3.16 µM, first compound 3 µM) 67.6%
> 3 µM: IC50 (second compound 3.16 µM)
1.77 µM: IC50 (second compound 0.316 µM)
< 0.00949 µM: IC50 (second compound 10 µM)
